For one experiment, the target named is LYNa (Homo sapiens, UniProt P07948). Briefly: mobility shift assay (MSA).
The next experiment addresses T1, RIPK5 (Homo sapiens, UniProt Q6XUX3).
T1 construct: gene DSTYK
T1 sequence (Q6XUX3 1-929): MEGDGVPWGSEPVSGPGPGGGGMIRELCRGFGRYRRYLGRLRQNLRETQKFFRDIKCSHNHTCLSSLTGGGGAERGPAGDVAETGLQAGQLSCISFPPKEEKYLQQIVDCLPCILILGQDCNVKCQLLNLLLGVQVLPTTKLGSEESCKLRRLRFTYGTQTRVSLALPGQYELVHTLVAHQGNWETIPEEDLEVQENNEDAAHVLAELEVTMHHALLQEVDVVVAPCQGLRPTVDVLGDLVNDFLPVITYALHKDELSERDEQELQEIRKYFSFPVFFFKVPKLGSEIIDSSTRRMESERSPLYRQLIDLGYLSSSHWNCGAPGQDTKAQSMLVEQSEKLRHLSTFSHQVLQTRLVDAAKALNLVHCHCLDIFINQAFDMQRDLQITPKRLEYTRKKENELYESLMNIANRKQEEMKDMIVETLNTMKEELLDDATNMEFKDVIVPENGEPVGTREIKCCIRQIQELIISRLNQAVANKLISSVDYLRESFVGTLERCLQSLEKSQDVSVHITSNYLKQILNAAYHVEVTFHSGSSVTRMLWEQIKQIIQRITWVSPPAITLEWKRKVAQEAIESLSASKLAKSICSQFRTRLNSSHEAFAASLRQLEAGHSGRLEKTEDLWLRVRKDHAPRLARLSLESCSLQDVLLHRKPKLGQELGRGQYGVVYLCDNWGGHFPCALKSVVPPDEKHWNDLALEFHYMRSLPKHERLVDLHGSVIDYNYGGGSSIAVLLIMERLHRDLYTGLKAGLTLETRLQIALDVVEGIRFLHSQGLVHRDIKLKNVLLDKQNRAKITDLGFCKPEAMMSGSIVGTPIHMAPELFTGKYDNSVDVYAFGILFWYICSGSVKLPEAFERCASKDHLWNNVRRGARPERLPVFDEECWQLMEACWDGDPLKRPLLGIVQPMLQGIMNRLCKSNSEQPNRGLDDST
Kind of experiment: biochemical. Also on record: KINOMEscan scanMAX competition binding, DNA-tagged kinases, qPCR read-out, percent control at 300 nM.

Experiment [1] concerns the target T2, RSK4(Kin.Dom.2-C-terminal) (Homo sapiens, UniProt Q9UK32).
T2 construct: gene RPS6KA6; Kin.Dom.2-C-terminal
Briefly: biochemical. Also on record: KINOMEscan scanMAX competition binding, DNA-tagged kinases, qPCR read-out, percent control at 300 nM.

For a further experiment, the target named is T3, EPHA3 (Homo sapiens, UniProt P29320).
T3 sequence (P29320 1-983): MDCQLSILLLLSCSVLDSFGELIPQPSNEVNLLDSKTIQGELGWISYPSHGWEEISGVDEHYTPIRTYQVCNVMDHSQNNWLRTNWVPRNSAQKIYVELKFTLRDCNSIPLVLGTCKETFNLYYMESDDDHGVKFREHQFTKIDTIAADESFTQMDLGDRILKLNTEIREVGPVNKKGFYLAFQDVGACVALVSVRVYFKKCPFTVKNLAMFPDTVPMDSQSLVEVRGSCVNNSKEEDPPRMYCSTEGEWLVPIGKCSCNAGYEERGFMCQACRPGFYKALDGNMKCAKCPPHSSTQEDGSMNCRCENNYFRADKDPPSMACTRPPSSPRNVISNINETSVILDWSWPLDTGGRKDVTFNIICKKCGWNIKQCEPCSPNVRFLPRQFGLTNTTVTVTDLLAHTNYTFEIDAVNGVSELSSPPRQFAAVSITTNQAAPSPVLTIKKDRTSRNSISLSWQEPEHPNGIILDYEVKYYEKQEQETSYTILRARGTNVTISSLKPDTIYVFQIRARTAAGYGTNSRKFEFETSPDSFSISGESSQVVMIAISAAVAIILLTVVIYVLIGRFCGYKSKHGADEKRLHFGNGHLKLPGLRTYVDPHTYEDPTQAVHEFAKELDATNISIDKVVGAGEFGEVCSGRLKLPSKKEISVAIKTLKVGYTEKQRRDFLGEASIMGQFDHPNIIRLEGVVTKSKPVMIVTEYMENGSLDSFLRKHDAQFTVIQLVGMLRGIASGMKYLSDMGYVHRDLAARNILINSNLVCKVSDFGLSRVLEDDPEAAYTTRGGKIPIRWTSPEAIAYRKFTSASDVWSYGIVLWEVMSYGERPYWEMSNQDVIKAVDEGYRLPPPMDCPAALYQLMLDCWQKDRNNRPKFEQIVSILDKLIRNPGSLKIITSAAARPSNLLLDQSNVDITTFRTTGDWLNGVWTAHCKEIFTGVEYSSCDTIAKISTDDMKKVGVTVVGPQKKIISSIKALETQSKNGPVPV
Briefly: biochemical. The arrangement: KINOMEscan scanMAX competition binding, DNA-tagged kinases, qPCR read-out, percent control at 300 nM.

In another experiment the target is T4, HIPK4 (Homo sapiens, UniProt Q8NE63).
T4 sequence (Q8NE63 1-616): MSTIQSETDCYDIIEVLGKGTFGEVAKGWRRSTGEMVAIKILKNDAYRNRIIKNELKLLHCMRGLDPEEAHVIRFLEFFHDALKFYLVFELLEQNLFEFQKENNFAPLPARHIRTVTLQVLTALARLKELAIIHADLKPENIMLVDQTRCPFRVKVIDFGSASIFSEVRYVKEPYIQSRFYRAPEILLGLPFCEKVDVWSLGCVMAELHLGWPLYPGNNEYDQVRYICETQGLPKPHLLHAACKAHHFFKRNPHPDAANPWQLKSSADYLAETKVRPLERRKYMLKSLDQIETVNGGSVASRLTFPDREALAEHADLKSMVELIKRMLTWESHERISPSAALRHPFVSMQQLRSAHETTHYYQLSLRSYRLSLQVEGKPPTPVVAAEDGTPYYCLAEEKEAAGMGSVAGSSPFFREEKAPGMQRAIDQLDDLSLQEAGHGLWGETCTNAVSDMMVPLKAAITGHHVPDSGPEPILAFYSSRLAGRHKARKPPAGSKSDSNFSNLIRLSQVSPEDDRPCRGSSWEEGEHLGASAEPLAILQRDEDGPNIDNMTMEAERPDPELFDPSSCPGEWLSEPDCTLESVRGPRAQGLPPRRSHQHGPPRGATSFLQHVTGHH
Briefly: biochemical. The arrangement: KINOMEscan scanMAX competition binding, DNA-tagged kinases, qPCR read-out, percent control at 300 nM.

The next experiment has as its target CSF1R (Homo sapiens, UniProt P07333). Kind of experiment: biochemical. The arrangement: KINOMEscan scanMAX competition binding, DNA-tagged kinases, qPCR read-out, percent control at 300 nM.
Setting [2] is: read-out: Percent control / Tirabrutinib.
The mark [3] stands for this setting: read-out: Percent control / Acalabrutinib.
Where [4] appears, read: read-out: Percent control / Ibrutinib.
[5] abbreviates: read-out: Percent control / Zanubrutinib.

The structures appear in SMILES notation. Like-named read-outs stand apart in the source and are kept apart here. Bounds are passed on as bounds.

Chain of CSF1R (P07333 whole entry): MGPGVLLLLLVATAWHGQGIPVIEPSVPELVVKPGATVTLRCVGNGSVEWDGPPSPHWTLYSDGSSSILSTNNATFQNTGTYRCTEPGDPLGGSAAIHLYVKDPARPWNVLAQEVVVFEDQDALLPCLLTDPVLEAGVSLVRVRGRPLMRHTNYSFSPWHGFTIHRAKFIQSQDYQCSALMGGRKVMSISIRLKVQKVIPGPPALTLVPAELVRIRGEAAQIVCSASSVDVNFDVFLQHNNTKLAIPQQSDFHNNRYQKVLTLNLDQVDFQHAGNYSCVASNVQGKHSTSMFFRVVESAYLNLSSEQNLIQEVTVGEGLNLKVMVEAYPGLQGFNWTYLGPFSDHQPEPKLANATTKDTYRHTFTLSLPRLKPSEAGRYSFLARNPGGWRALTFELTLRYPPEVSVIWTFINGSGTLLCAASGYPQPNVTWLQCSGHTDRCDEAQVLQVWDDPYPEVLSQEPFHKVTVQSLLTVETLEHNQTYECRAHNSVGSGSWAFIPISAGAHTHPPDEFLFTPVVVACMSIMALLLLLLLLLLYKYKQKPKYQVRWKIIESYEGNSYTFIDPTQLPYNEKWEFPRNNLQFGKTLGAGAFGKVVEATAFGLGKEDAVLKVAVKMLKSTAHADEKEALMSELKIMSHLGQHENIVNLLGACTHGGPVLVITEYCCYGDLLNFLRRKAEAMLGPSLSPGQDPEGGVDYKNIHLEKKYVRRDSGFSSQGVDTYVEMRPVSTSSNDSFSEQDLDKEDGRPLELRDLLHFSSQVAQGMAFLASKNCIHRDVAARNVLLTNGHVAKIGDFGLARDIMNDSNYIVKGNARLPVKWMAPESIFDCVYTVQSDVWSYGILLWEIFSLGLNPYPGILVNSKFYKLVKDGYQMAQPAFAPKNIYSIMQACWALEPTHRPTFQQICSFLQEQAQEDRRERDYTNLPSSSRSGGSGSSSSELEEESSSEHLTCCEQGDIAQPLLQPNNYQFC
T2 sequence (Q9UK32 whole entry): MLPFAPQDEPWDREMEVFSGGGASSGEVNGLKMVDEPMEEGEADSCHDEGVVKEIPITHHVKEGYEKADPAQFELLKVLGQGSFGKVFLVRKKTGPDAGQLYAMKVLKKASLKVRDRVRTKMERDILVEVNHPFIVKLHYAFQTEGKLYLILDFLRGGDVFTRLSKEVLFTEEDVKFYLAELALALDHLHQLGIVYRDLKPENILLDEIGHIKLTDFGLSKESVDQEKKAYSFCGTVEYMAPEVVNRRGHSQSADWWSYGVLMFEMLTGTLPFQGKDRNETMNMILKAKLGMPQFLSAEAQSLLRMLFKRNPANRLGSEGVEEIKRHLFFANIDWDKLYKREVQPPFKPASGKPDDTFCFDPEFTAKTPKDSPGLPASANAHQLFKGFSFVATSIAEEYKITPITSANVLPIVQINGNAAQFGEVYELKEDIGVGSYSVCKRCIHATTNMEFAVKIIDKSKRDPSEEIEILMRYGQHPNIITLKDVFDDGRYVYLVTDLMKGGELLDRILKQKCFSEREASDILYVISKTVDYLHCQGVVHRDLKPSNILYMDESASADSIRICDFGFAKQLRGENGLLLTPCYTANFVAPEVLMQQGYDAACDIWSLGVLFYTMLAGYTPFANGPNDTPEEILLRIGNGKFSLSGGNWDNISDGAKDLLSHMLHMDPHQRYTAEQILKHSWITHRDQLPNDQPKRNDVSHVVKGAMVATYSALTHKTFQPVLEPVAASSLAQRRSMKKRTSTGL
Chain of LYNa (P07948 whole entry): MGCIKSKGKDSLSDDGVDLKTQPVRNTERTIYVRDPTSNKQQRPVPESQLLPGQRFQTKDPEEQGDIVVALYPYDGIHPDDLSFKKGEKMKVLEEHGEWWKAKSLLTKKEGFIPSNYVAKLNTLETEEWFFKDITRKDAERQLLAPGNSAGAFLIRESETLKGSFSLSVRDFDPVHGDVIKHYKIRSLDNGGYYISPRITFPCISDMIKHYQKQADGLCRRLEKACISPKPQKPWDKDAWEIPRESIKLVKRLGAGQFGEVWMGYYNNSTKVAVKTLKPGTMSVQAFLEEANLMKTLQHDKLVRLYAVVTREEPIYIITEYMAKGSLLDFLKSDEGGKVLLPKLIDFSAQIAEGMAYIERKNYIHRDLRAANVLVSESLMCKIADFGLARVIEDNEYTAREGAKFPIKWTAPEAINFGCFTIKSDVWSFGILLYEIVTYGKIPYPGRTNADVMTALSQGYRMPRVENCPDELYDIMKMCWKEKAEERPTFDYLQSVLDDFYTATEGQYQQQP

Regarding `CC#CC(=O)N1CC[C@@H](n2c(=O)n(-c3ccc(Oc4ccccc4)cc3)c3c(N)ncnc32)C1` [Tirabrutinib], at LYNa, the IC50 was 3.49 µM. The remaining binding at 0.3 µM at RIPK5 (setting [2]) came to 93%; in experiment [1] (setting [2]) it was 93%; on EPHA3 (setting [2]) it was 92%.

`CC#CC(=O)N1CCC[C@H]1c1nc(-c2ccc(C(=O)Nc3ccccn3)cc2)c2c(N)nccn12` [Acalabrutinib]: the IC50 at LYNa was > 10 µM. For the same compound, the remaining binding at 0.3 µM is 85% on HIPK4 (setting [3]), 88% on CSF1R (setting [3]), 95% in experiment [1] (setting [3]) and 74% on EPHA3 (setting [3]).

Regarding `C=CC(=O)N1CCC[C@@H](n2nc(-c3ccc(Oc4ccccc4)cc3)c3c(N)ncnc32)C1` [Ibrutinib], the remaining binding at 0.3 µM on RIPK5 (setting [4]) turned out to be 47%; at HIPK4 (setting [4]), 98%; on CSF1R (setting [4]), 66%; on EPHA3 (setting [4]), 82%.

As for `C=CC(=O)N1CCC([C@@H]2CCNc3c(C(N)=O)c(-c4ccc(Oc5ccccc5)cc4)nn32)CC1` [Zanubrutinib], the remaining binding at 0.3 µM is 100% on RIPK5 (setting [5]); 87% on HIPK4 (setting [5]); 88% at CSF1R (setting [5]); 82% in experiment [1] (setting [5]); 75% on EPHA3 (setting [5]).

As usually defined, the IC50 is the concentration that gives 50% inhibition.

The record behind these values is article PMC10004634 (PLOS ONE, 2023).
